Measured values reported in publication PMC5893132, “Selective inhibition of histamine-evoked Ca^2+ signals by compartmentalized cAMP in human bronchial airway smooth muscle cells” (Cell Calcium, 2018).
Structures can show the parent of a compound that is named as a salt.

How the values were obtained:
Type in all cases: cell-based, human
[1] = system: intracellular cAMP in hBASMCs; assay: Intracellular cAMP in hBASMCs by mass spectrometry
Protocol: These methods were modified from. Confluent cultures of hBASMCs in 48-well plates were serum-deprived (6–24 h) and the medium was then replaced with HBSS (300 μL) containing HEPES (5 mM) and BSA (0.1%, w/v). Cells were stimulated at 20 °C, and reactions were terminated by aspiration of the medium and addition of acetonitrile (170 μL) containing dibutyryl cAMP (0.5 μM, to provide an internal standard). The plates were centrifuged (1500 xg, 15 min, 4 °C), supernatants (158 μL) were transferred to a 96-well, glass-coated plate (Thermo Scientific), and aqueous NH4HCO3 (pH 9.4, 93 μL) was added to each sample. After mixing and centrifugation (1500 xg, 15 min, 4 °C), samples were stored at 4 °C before analysis. Samples were analyzed by liquid chromatography tandem mass spectrometry (LC–MS/MS) using a Waters Acquity UPLC and a Sciex 5500 mass spectrometer equipped with an electrospray ionization source. ATP, ADP, AMP and cAMP were analyzed using a ZIC-pHILIC polymeric column (5-μm particle size, […]) maintained at 35 °C. Calibration standards were prepared in the lysis medium containing the internal standard, dibutyryl cAMP (0.5 μM). […] Samples were detected using multiple reaction monitoring in negative ion mode using the following parent-to-daughter mass transitions: cAMP m/z 327.9 → 133.9 (DP −100 V, CE −33 eV), AMP m/z 345.9 → 134.0 (DP −100 V, CE −50 eV), ADP m/z 426.0 → 134.0 (DP −100 V, CE −30 eV), ATP m/z 505.9 → 408.0 (DP −100 V, CE −35 eV), and internal standard dibutyryl cAMP m/z 468.1 → 175.0 (DP −100 V, CE −35 eV). Concentration-effect relationships were fitted to logistic equations for each experiment using GraphPad Prism (version 5, GraphPad Software, La Jolla, CA, USA), from which half-maximally effective drug concentrations (EC50), maximal responses, and Hill slopes were determined. For statistical analyses, maximal responses, Hill slopes and pEC50 (-logEC50) or pIC50 (-log of the half-maximal inhibitory concentration, IC50) values determined for individual experiments were pooled for statistical analysis. […]

[2] = system: bradykinin-evoked Ca^2+ signals in hBASMCs; assay: Bradykinin-evoked Ca2+ signals in populations of fluo-4-loaded hBASMCs; settings: cells treated with PTX 100 ng·mL^−1, 24 h; HBS
Protocol: (§1) Two methods were used to measure [Ca^2+]i in populations of hBASMCs. For measurements using a FlexStation III plate-reader (Molecular Devices, Sunnyvale, CA, USA), hBASMCs were seeded into 96-well plates (10^4 cells per well). After about 4 days, when the cells were confluent, the medium was replaced with SMGM-2 without serum or growth factor supplements, and the cells were used after a further 24 h. […] Cells were washed with HEPES-buffered saline (HBS: 135 mM NaCl, 5.9 mM KCl, 1.2 mM MgCl2, 1.5 mM CaCl2, 11.6 mM HEPES, 11.5 mM D-glucose, pH 7.3), and loaded with fluo-4 by incubation with fluo-4-AM (2 μM) in HBS (100 μL per well) containing pluronic F127 (0.02%, v/v) and probenecid (2.5 mM). After 1 h at 20 °C, the medium was replaced with HBS (100 μL per well) containing probenecid (2.5 mM). After a further incubation at 20 °C for 1 h, the medium was replaced with HBS (60–80 μL per well) or nominally Ca^2+-free HBS, and the cells were used immediately for experiments at 20 °C. […] Drug additions (20 μL at 4 or 5 times the final concentration) were added automatically. Fluorescence from fluo-4 (excitation 485 nm, emission 525 nm) was recorded at 1.44-s intervals using Softmax Pro 5.4 (Molecular Devices). Fluorescence was calibrated to [Ca^2+]i from: [Ca^2+]i=KDCa×(F−Fmin/Fmax−F) where, KDCa is the equilibrium dissociation constant of fluo-4 for Ca^2+ (345 nM), F is the recorded fluorescence, and Fmin and Fmax are the fluorescence values recorded after addition of triton-X-100 (0.1%, v/v) with either BAPTA (10 mM, Fmin) or CaCl2 (10 mM, Fmax). […] Fmax was determined for each well at the end of an experiment, and the average value was used for each column of 8 wells. Fmin was determined from parallel wells on each plate.
(§2) For measurements of [Ca^2+]i using an FDSS 7000 FLIPR (Hamamatsu), hBASMCs were seeded into 384-well plates (8000 cells per well) in 20 μL of SMGM-2 containing 5% serum. […] The exact composition of this ‘no-wash’ indicator kit is not disclosed by the manufacturer, but it contains fluo-4-AM and components that reduce background fluorescence. […]

[3] = system: intracellular Ca^2+ stores of hBASMCs; assay: Ca2+ content of intracellular stores, by ionomycin in Ca2+-free HBS; settings: isoproterenol, forskolin 10 μM, 5 min, 2-APB 5 min, higher concentrations needed than for inhibition of GPCR-evoked signals
[4] = system: carbachol-evoked Ca^2+ signals in hBASMCs; assay: Carbachol-evoked Ca2+ signals in populations of fluo-4-loaded hBASMCs; settings: cells treated with PTX 100 ng·mL^−1, 24 h; HBS
Protocol: as §1, §2

## CC(C)NC[C@H](O)c1ccc(O)c(O)c1 [isoproterenol, (−)-isoproterenol hydrochloride]
[1]; Homo sapiens, 5 min, MS analyses, n = 3, read-out: pEC50 for cAMP accumulation (converted)
  EC50: 132 nM
[1]; isoproterenol (5 min) vs IBMX (20 min), histamine 10 μM, cAMP by MS
  intracellular cAMP associated with matched inhibition of Ca2+ signals, relative to IBMX: ~5.4 fold
[2]
  effect on the Ca2+ signals evoked by bradykinin after pertussis toxin: remained insensitive to isoproterenol
[3]
  effect on the Ca2+ content of the intracellular stores: Neither isoproterenol nor forskolin (10 μM, 5 min) affected
[4]
  effect on the Ca2+ signals evoked by carbachol after pertussis toxin: remained insensitive to isoproterenol
